Each structure is given as a SMILES string.

The subject of assay [1] is Pyricularia oryzae. Nature of the assay: Fungicidal activity against Magnaporthe oryzae in 7 days old young rice seedlings compound sprayed 1 day after inoculation assessed as efficacy against blast disease measured as lesion level at 200 ppm measured after 7 days of inoculation. It counts as functional.
Assay [2] relates to Pyricularia oryzae. Nature of the assay: Fungicidal activity against Magnaporthe oryzae in 7 days old young rice seedlings compound sprayed 1 day after inoculation assessed as efficacy against blast disease measured as lesion level at 50 ppm measured after 7 days of inoculation. It counts as functional.

For the compound `CC1(C)C(COC(=O)Nc2ccccc2)C1(Cl)Cl` (stereo not drawn), the Efficacy in the assay with Pyricularia oryzae [1] is below 5%.
The same measure, in the same setting: under `CC1(C)C(COC(=O)c2ccccc2)C1(Cl)Cl` (stereo not drawn) stands below 5%.
On the same count and under the same terms, under `CC1(C)C(C(=O)O)C1(Cl)Cl` (stereo not drawn) stands below 5%.
Still for that read-out and setting: then `CC1(C)C(Cl)(Cl)C1(C)C(=O)O` (stereo not drawn), with below 20%.
On to `CC1(C)C(C(N)=O)C1(Cl)Cl` (stereo not drawn), for which the Efficacy in the assay on Pyricularia oryzae [1] is listed as below 20%.
As to `CC[C@]1(C(=O)N[C@H](C)c2ccc(Cl)cc2)[C@H](C)C1(Cl)Cl` [trans-Carpropamid], in the assay with Pyricularia oryzae [2], the Efficacy is on record as 0%.
As to `CC(NC(=O)C1(C)C(C)(C)C1(Cl)Cl)c1ccc(Br)cc1` (stereo not drawn), the Efficacy in the assay with Pyricularia oryzae [2] and in the assay on Pyricularia oryzae [1] was 0% each time.
Take `CC1(C)C(CO)C1(Cl)Cl` (stereo not drawn): the Efficacy in the assay with Pyricularia oryzae [1] was below 5%.
For the compound `CNC(=O)C1C(C)(C)C1(Cl)Cl` (stereo not drawn), the Efficacy in the assay on Pyricularia oryzae [1] is recorded as below 40%.
Still for that read-out and setting: then `CCC1(CC)C(C(=O)O)C1(Cl)Cl` (stereo not drawn), with below 30%.
Still for that read-out and setting: then `CC(NC(=O)C1(C)C(C)(C)C1(Cl)Cl)c1ccccc1` (stereo not drawn), with below 5%.
In the case of `C[C@@H](NC(=O)C1(C)C(C)(C)C1(Cl)Cl)c1ccc(Br)cc1` (stereo in doubt; 17(Rl)), the Efficacy in the assay with Pyricularia oryzae [2] was below 5%.
Regarding `C[C@H](NC(=O)C1(C)C(C)(C)C1(Cl)Cl)c1ccc(Br)cc1` (stereo in doubt; 17(Sl)), the Efficacy in the assay on Pyricularia oryzae [2] is recorded as below 20%.
Consider `CC1(C)C(C(=O)Oc2ccccc2)C1(Cl)Cl` (stereo not drawn), for which the Efficacy with Pyricularia oryzae [1] is on record as below 20%.
Regarding `C[C@@H](NC(=O)C1(C)C(C)(C)C1(Cl)Cl)c1ccc(Br)cc1` (stereo in doubt; 17(Rd)), the Efficacy with Pyricularia oryzae [2] is on record as 0%.
With `CC[C@]1(C(=O)NC(C)c2ccc(Cl)cc2)[C@H](C)C1(Cl)Cl` (stereo partly drawn) [CARPROPAMID], the Efficacy in the assay on Pyricularia oryzae [1] was 0%.
Same read-out and setting: then `CC1(C)C(C#N)C1(Cl)Cl` (stereo not drawn), with below 30%; and `CC(NC(=O)C1(C)C(C)(C)C1(Cl)Cl)c1ccc(Cl)cc1` (stereo not drawn), with 0%.
On to `CC[C@]1(C(=O)NC(C)c2ccc(Cl)cc2)[C@H](C)C1(Cl)Cl` (mixture of isomers) [CARPROPAMID], for which the Efficacy in the assay on Pyricularia oryzae [2] worked out at 0%.
Turning to `CC(NC(=O)C1(C(C)C)CC1(Cl)Cl)c1ccc(Cl)cc1` (stereo not drawn), the Efficacy in the assay with Pyricularia oryzae [1] is reported as 0%.
Regarding `CCOC(=O)C1C(C)(C)C1(Cl)Cl` (stereo not drawn), the Efficacy in the assay on Pyricularia oryzae [1] is on record as below 5%.
The same measure, in the same setting: under `CC1(C)C(C(=O)Nc2ccccc2)C1(Cl)Cl` (stereo not drawn) stands above 40%.

Values taken from ChEMBL document CHEMBL3044822, “Carpropamid, a New Fungicide for Rice Blast Control” (1998).
